According to patent US10889573B2, “Anthelmintic quinoline-3-carboxamide derivatives” (Bayer Animal Health GMBH, priority 2016, dated 2021):

Columns and labels:
[1] = tested on: Dirofilaria immitis microfilariae; assay: In vitro assay 3: Dirofilaria immitis microfilariae (DIROIM L1), motility; settings: 72 h, read-out: EC50 (reduction of motility), 72 h incubation
[2] = biological target: C. elegans Slo-1a (Caenorhabditis elegans, UniProt Q95V25); settings: pE50 (negative decadic logarithm of EC50), CHO cells expressing C. elegans Slo-1a, voltage sensitive dye
Sequence of C. elegans Slo-1a (Q95V25 whole entry): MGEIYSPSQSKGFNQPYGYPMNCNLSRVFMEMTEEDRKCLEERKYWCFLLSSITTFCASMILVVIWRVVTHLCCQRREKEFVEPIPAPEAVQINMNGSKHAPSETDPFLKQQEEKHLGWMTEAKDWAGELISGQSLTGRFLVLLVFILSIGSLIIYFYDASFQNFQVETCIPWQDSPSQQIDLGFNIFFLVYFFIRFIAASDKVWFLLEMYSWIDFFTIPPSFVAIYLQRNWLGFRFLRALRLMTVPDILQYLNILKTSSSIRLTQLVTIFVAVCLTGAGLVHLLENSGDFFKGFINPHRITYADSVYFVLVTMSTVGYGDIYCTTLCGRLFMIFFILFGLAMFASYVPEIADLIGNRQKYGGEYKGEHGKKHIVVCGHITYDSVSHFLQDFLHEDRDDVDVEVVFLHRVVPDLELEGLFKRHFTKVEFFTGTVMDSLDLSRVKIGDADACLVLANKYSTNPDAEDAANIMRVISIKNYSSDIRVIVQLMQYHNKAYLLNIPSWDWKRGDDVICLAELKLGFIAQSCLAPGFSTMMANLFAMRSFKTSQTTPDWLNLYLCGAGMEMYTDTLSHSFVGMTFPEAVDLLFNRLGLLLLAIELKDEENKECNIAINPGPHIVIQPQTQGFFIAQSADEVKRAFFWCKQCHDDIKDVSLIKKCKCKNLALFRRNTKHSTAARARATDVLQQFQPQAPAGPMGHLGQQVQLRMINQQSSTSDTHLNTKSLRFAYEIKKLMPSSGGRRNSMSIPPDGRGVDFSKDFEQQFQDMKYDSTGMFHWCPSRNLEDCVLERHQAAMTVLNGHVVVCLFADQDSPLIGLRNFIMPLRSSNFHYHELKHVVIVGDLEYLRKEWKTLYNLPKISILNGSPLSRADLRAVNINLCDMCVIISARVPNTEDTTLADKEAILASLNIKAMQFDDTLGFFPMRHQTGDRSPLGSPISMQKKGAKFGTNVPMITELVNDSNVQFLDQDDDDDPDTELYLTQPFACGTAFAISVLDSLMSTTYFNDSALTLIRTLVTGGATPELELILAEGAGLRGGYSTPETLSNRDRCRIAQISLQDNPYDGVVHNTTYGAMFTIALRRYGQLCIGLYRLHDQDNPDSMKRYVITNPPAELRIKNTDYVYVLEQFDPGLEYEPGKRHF

[3] = tested on: Nippostrongylus brasiliensis; assay: In vitro assay 2: Nippostrongylus brasiliensis (NIPOBR), acetylcholine esterase readout; settings: read-out: activity (reduction of AChE compared to negative control); for inhibition at 10 µg/mL: 10 μg/ml; for inhibition at 1 µg/mL: 1 μg/ml
Method: In Vitro Assay 2: Nippostrongylus brasiliensis (NIPOBR)
Adult Nippostrongylus brasiliensis were washed with saline buffer containing 100 U/ml penicillin, 0.1 mg/ml streptomycin and 2.5 μg/ml amphotericin B. Test compounds were dissolved in DMSO and worms were incubated in medium in a final concentration of 10 μg/ml (10 ppm) respectively 1 μg/ml (1 ppm). An aliquot of the medium was used to determine the acetylcholine esterase activity in comparison to a negative control. The principle of measuring acetylcholine esterase as readout for anthelmintic activity was described in Rapson et al (1986) and Rapson et al (1987).

SMILES | EC50 [1] [µg/mL] | EC50 [2] [nM] | inhibition at 10 µg/mL [3] [%] | inhibition at 1 µg/mL [3] [%]
COc1ccc(F)cc1-c1cccc2c(N3CCC(O)C3)c(C(=O)N[C@H]3CCOc4ccccc43)cnc12 (mixture of isomers) [Example 270] | < 0.1 | 3.16 to 31.6 | – | –
O=C(N[C@H]1CCOc2ccccc21)c1cnc2c(-c3cc(Cl)cc(Cl)c3)cccc2c1C1CCNC1 (mixture of isomers) [Example 519] | < 10 | 31.6 to 316 | – | –
O=C(N[C@H]1CCOc2ccccc21)c1cnc2c(-c3cc(Cl)cc(Cl)c3)cccc2c1Cl [Example 4, 4-chloro-8-(3,5-dichlorophenyl)-N-[(4S)-3,4-dihydro-2H-chromen-4-yl]quinoline-3-carboxamide] | < 0.1 | 3.16 to 31.6 | – | –
O=C(N[C@H]1CCc2ccccc21)c1cnc2c(-c3cccc(Cl)c3)cccc2c1Cl [Example 6] | < 0.1 | 3.16 to 31.6 | – | –
CN(C)c1c(C(=O)N[C@H]2CCOc3ccccc32)cnc2c(-c3ccc4ncn(C)c4c3)cccc12 [Example 71] | < 1 | 31.6 to 316 | > 80 | –
O=C(N[C@H]1CCc2ccccc21)c1cnc2c(-c3cc(Cl)cc(Cl)c3)cccc2c1N1CC(O)C1 [Example 102] | < 1 | 3.16 to 31.6 | – | –
CC1CN(c2c(C(=O)N[C@H]3CCc4ccccc43)cnc3c(-c4cc(Cl)cc(Cl)c4)cccc23)C1 [Example 120] | < 10 | 31.6 to 316 | – | –
COC(=O)c1cc(-c2cccc3c(N4CCOCC4)c(C(=O)N[C@H]4CCOc5ccccc54)cnc23)c2ocnc2c1 [Example 216] | < 1 | 31.6 to 316 | – | –
COc1cc(F)c(-c2cccc3c(N4CCOCC4)c(C(=O)N[C@H]4CCOc5ccccc54)cnc23)cc1F [Example 230] | < 1 | 31.6 to 316 | – | –
CC(C)(C)OC(=O)[C@@H]1CCCN1c1c(C(=O)N[C@H]2CCc3ccccc32)cnc2c(-c3cc(Cl)cc(Cl)c3)cccc12 [Example 241] | < 1 | 31.6 to 316 | – | –
CC(C)(C)OC(=O)[C@@H]1CCCN1c1c(C(=O)N[C@H]2CCOc3ccccc32)cnc2c(-c3cc(Cl)cc(Cl)c3)cccc12 [Example 242] | < 1 | 31.6 to 316 | – | –
CC(C)(C)OC(=O)[C@@H]1CCCN1c1c(C(=O)N[C@H]2CCOc3ccccc32)cnc2c(-c3cc(Cl)cc(Cl)c3)cccc12 [Example 243, tert-butyl 1-{8-(3,5-dichlorophenyl)-3-[(4S)-3,4-dihydro-2H-chromen-4-ylcarbamoyl]quinolin-4-yl}-L-prolinate] | – | 316 to 5010 | – | –
O=C(N[C@H]1CCOc2ccccc21)c1cnc2c(-c3cc(Cl)cc(Cl)c3)cccc2c1N1CCC[C@@H]1CO [Example 287] | < 10 | 3.16 to 31.6 | – | > 80
O=C(N[C@H]1CCc2ccccc21)c1cnc2c(-c3cc(Cl)cc(Cl)c3)cccc2c1N1CCC[C@@H]1C(=O)O [Example 299] | < 1 | 31.6 to 316 | – | –
O=C(NC1CCOc2ccccc21)c1cnc2c(-c3cc(Cl)cc(Cl)c3)cccc2c1N1CC2CCC(C1)O2 (stereo not drawn) [Example 302] | < 10 | < 3.16 | – | > 80
C=C(C)c1c(C(=O)N[C@H]2CCOc3ccccc32)cnc2c(-c3cc(Cl)cc(Cl)c3)cccc12 [Example 317, 8-(3,5-dichlorophenyl)-N-[(4S)-3,4-dihydro-2H-chromen-4-yl]-4-(prop-1-en-2-yl)quinoline-3-carboxamide] | < 0.1 | 3.16 to 31.6 | – | –
CCOC(=O)[C@@H]1CCCN1c1c(C(=O)N[C@H]2CCOc3ccccc32)cnc2c(-c3cc(Cl)cc(Cl)c3)cccc12 [Example 320] | < 1 | 3.16 to 31.6 | – | –
O=C(N[C@H]1CCc2ccccc21)c1cnc2c(-c3cc(Cl)cc(Cl)c3)cccc2c1OCC1CCCC1 [Example 348] | < 1 | 3.16 to 31.6 | – | –

SMILES | EC50 [1] [µg/mL] | EC50 [2] [nM] | inhibition at 10 µg/mL [3] [%] | inhibition at 1 µg/mL [3] [%]
CCOC(=O)C(C#N)c1c(C(=O)N[C@H]2CCOc3ccccc32)cnc2c(-c3cc(Cl)cc(Cl)c3)cccc12 (stereo partly drawn) [Example 354, ethyl cyano{8-(3,5-dichlorophenyl)-3-[(4S)-3,4-dihydro-2H-chromen-4-ylcarbamoyl]quinolin-4-yl}acetate] | < 1 | 31.6 to 316 | – | –
O=C(N[C@H]1CCOc2ccccc21)c1cnc2c(-c3cc(Cl)cc(Cl)c3)cccc2c1Sc1ccccn1 [Example 363] | < 10 | 316 to 5010 | > 80 | –
COC(=O)CNc1c(C(=O)N[C@H]2CCOc3ccccc32)cnc2c(-c3cc(Cl)cc(Cl)c3)cccc12 [Example 375] | < 0.1 | 3.16 to 31.6 | – | > 80
CN(C)c1c(C(=O)N[C@H]2CCOc3ccccc32)cnc2c(-c3ccc(C#N)s3)cccc12 [Example 389] | < 10 | 31.6 to 316 | – | –
O=C(N[C@H]1CCOc2ccccc21)c1cnc2c(-c3cc(Cl)cc(Cl)c3)cccc2c1N1CCC(F)(F)CC1 [Example 398] | < 10 | < 3.16 | – | –
Cc1ncc(-c2cccc3c(N(C)C)c(C(=O)N[C@H]4CCOc5ccccc54)cnc23)s1 [Example 456] | < 1 | 31.6 to 316 | – | –
Cc1nc2c(-c3cccc(Cl)c3Cl)cccc2c(N(C)C)c1C(=O)N[C@H]1CCOc2ccccc21 [Example 481, 8-(2,3-dichlorophenyl)-N-[(4S)-3,4-dihydro-2H-chromen-4-yl]-4-(dimethylamino)-2-methylquinoline-3-carboxamide] | < 10 | 3.16 to 31.6 | – | –
CN(C)c1c(C(=O)NC2CCOc3ccc(Br)cc32)cnc2c(-c3cc(Cl)cc(Cl)c3)cccc12 (stereo not drawn) [Example 580] | < 1 | 316 to 5010 | – | –
CN(C)c1c(C(=O)NC2COCc3ccccc32)cnc2c(-c3cc(Cl)cc(Cl)c3)cccc12 (stereo not drawn) [Example 581] | < 0.1 | 31.6 to 316 | – | > 80
CN(C)C(=O)c1c(C(=O)N[C@H]2CCOc3ccccc32)cnc2c(-c3cc(Cl)cc(Cl)c3)cccc12 [Example 585] | < 1 | 3.16 to 31.6 | – | > 80
O=C(N[C@H]1CCOc2ccccc21)c1cnc2c(-c3cc(Cl)cc(Cl)c3)cccc2c1CO [Example 592] | – | 316 to 5010 | – | –
O=C(N[C@H]1CCOc2ccccc21)c1cnc2c(-c3cc(Cl)cc(Cl)c3)cccc2c1CCO [Example 593] | – | 3.16 to 31.6 | – | –
O=C(N[C@H]1CCOc2ccccc21)c1cnc2c(-c3cc(Cl)cc(Cl)c3)c(O)ccc2c1N1CCOCC1 [Example 616] | < 0.1 | < 3.16 | – | –
O=C(N[C@H]1CCOc2ccccc21)c1cnc2c(-c3cc(Cl)ccc3F)cc(O)cc2c1N1CCOCC1 [Example 626] | < 0.1 | 3.16 to 31.6 | – | > 80
CN(C)c1c(C(=O)NC2CCOc3c(Br)cccc32)cnc2c(-c3cc(Cl)cc(Cl)c3)cccc12 (stereo not drawn) [Example 634] | < 0.1 | 31.6 to 316 | – | > 80
O=C(N[C@H]1CCOc2ccccc21)c1cnc2c(-c3cccc(Cl)c3Cl)cccc2c1C1=CCOCC1 [Example 653] | < 0.1 | < 3.16 | – | > 80
Cn1cc(-c2c(C(=O)N[C@H]3CCOc4ccccc43)cnc3c(-c4cc(Cl)cc(Cl)c4)cccc23)c(=O)n(C)c1=O [Example 654] | < 1 | 31.6 to 316 | – | –
CN(C)c1c(C(=O)NC2COCc3c(F)cccc32)cnc2c(-c3cc(Cl)cc(Cl)c3)cccc12 (stereo not drawn) [Example 665] | – | 31.6 to 316 | – | –
